The source of these data is PubChem BioAssay (NCI).

Values joined by “and” are separate entries in the source; they are usually repeats but may differ in a detail not shown here. Equal entries are not always repeated.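 Cells were grown in 96-well plates and exposed to each compound for 48 hours at five concentrations; endpoints were interpolated linearly between bracketing concentrations, or set to the highest concentration if not reached. At the GI50, growth is halved. TGI marks complete inhibition of growth.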

Assay in all cases: DTP human tumour cell line panel, 48 h
Test [1] relates to MDA-MB-231 breast.
In test [2] the test system is ACHN renal.
Test [3] deals with SF-295 CNS.
Test [4] concerns BT-549 breast.
In test [5] the test system is HL-60(TB) leukemia.
Test [6] deals with KM12 colon.
Test [7] deals with NCI-H522 lung.
For test [8], the system named is SR leukemia.
Test [9] concerns RXF 393 renal.
Test [10] relates to A549 NSCLC.

On to `COc1ncnn2ccc(-c3cnc4nc(C)n(Cc5nnc(C(C)F)o5)c4c3)c12` (stereo not given), for which the GI50 in [1] is 0.278 µM; in test [2], 0.24 µM; in [3], 0.326 µM; in [4], 0.0585 µM; in test [5] it was 0.367 µM; in test [6], 0.116 µM. Also, the GI50 in test [7] is 0.0859 µM; in [8], 0.156 µM; in test [9], 247 nM; in test [10] it was 0.136 µM. Besides, the TGI in test [1] was 27 µM; in test [2] it was > 100 µM; in [3], 8.04 µM; in [4] it was 1.61 µM; in test [6], > 100 µM; in [7], 0.363 µM. The TGI in [8] is 16 µM; in test [9], 0.665 µM; in test [10] it was > 100 µM.
Consider `CC(C)[C@]12O[C@H]1[C@@H]1O[C@]13[C@]1(O[C@H]1C[C@H]1C4=C(CC[C@@]13C)C(=O)OC4)[C@@H]2OC(=O)OC(C)(C)C`, for which the GI50 in [1] was 0.0543 µM; in [2], 0.0107 µM; in [3], 0.0336 µM; in test [4], 0.0172 µM; in [5] it was < 0.01 µM; in [6] it was 0.116 µM. The GI50 is 0.0137 µM in [7], 0.0159 µM in [8], < 11.8 nM in [9] and 0.0206 µM in test [10]. Further, the TGI in [1] is > 100 µM; in test [2], > 100 µM; in test [3], > 100 µM; in [4], 0.0616 µM; in [5] it was 0.805 µM; in test [6], 3.41 µM. Besides, the TGI is 0.0635 µM in test [7], 0.0286 µM in test [9] and > 100 µM in [10].
In the case of `COc1ccc(C(=O)O[C@@H]2CCN3CC[C@H](C)[C@H]23)cc1`, the TGI in [1], in test [2], in test [3], in test [4], in test [5] and in test [6] was > 100 µM each time. For the same molecule, the TGI in test [7], in test [8], in test [9] and in test [10] was > 100 µM throughout.
For the molecule `CC[C@@]1(O)C(=O)OCc2c1cc1n(c2=O)Cc2cc3c(OC)cccc3nc2-1`, the TGI is > 100 µM in test [1]; 2.65 µM in [3]; > 39.8 µM in test [4]; 5.86 µM in test [6]; 2.12 µM in test [7]; 1.35 µM in test [8]. In test [10], this molecule displayed a concentration for total growth inhibition (TGI) of 7.59 µM. Moreover, the GI50 in test [2] is 0.00175 µM and < 0.215 µM; in test [3] it was 0.00186 µM; in test [5] it was 0.00321 µM; in [7], 0.028 µM; in test [9], 0.0413 nM.
In the case of `CCOC(=O)c1c2c(n(Cc3ccccc3)c1C)-c1nc[nH]c1C(=O)C2=O`, the GI50 in [1] is 13.1 µM; in test [2], 14.8 µM; in test [3], 15.3 µM; in [4], 17 µM; in [5], 2.61 µM; in [6], 13.9 µM. Further, the GI50 was 15 µM in test [7], 1.29 µM in test [8], 11200 nM in test [9] and 11.8 µM in test [10]. Further, the TGI was determined as 28.3 µM in test [1]; 27.9 µM in test [2]; 30.9 µM in test [3]; 31.1 µM in test [4]; 10.3 µM in test [5]; 27.7 µM in test [6]. Further, the TGI in test [7] stood at 28.8 µM; in test [8], 3.6 µM; in [9] it was 23.2 µM; in [10] it was 25.9 µM.
On to `Clc1ccc(Nc2ncnc3ccccc23)cc1`, for which the GI50 is > 100 µM in test [1]; 11.1 µM in [2]; 37.9 µM in test [3]; 72.8 µM in test [4]; 36.7 µM in [5]; 47.7 µM in [6]. Also, the GI50 in test [7] was 15.5 µM; in [8], 23 µM; in [9] it was 47700 nM; in [10], 47.6 µM. In addition, the TGI in test [1] is > 100 µM; in test [2] it was 71.7 µM; in [3], > 100 µM; in test [4], > 100 µM; in [5], > 100 µM; in [6], > 100 µM. In addition, the TGI was 55.8 µM in test [7], 60.9 µM in test [8], > 100 µM in [9] and > 100 µM in test [10].
Turning to `O=C1NC(=N[C@@H]2C[C@H]2c2ccccc2)S/C1=C\c1ccc2ncccc2c1`, the GI50 in test [1] is 5.02 µM; in test [2] it was 1.29 µM; in [3], 1.29 µM; in test [4] it was 1.57 µM; in test [5], 0.876 µM; in test [6], 1.47 µM. Also, the GI50 in [7] is 0.776 µM; in test [8], 0.646 µM; in [9], 1120 nM; in test [10], 0.976 µM. Also, the TGI was 22.4 µM in test [1]; 8.69 µM in [2]; > 12.8 µM in test [3]; 6.49 µM in test [4]; 9.47 µM in [5]; > 12.7 µM in [6]. Further, the TGI in test [7] amounted to 3.12 µM; in test [8], 3.27 µM; in test [9], 4.84 µM; in [10], 6.71 µM.
Take `COc1ccc(-c2nc(Nc3ccc(F)cc3)nc(Nc3ccc4c(c3)nc(C)n4Cc3ccccc3)n2)cc1`: the GI50 was 3.64 µM in test [1]; 3.13 µM in [2]; 3.73 µM in test [3]; 3.52 µM in test [4]; 4.54 µM in test [5]; 3.55 µM in test [6]. Besides, the GI50 in [7] was 5.92 µM; in [8], 3.49 µM; in [9], 2530 nM; in test [10], 3.59 µM. The TGI in [1] was 18.9 µM; in [2], > 100 µM; in [3], > 100 µM; in test [4], > 100 µM; in test [5], > 100 µM; in test [6] it was 33.8 µM. Further, the TGI in test [7] was > 100 µM; in test [8] it was 47.8 µM; in test [9], 9.54 µM; in test [10] it was > 100 µM.

What is called GI50 is the concentration that inhibits growth by half. A word on the TGI: it is the concentration giving total growth inhibition. A higher TGI goes with less potent growth arrest.
